Columns and labels:
[1] = target: memapsin 2 (Homo sapiens, UniProt P56817); assay: Inhibition of memapsin 2 catalytic activity (Ki); assay type: biochemical; conditions: memapsin 2, pH 4, 37° C.; read-out: M2K
Summary of the method: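 Run at 37 °C and pH 4: compound and enzyme pre-incubated 20 min before FS-2 fluorogenic substrate started hydrolysis,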

[2] = target: cathepsin D (Homo sapiens, UniProt P07339); assay: Inhibition of cathepsin D catalytic activity (Ki); assay type: biochemical; conditions: pH 4.0, 37° C., read-out: CDK
Sequence of cathepsin D (P07339 65-412, species assumed): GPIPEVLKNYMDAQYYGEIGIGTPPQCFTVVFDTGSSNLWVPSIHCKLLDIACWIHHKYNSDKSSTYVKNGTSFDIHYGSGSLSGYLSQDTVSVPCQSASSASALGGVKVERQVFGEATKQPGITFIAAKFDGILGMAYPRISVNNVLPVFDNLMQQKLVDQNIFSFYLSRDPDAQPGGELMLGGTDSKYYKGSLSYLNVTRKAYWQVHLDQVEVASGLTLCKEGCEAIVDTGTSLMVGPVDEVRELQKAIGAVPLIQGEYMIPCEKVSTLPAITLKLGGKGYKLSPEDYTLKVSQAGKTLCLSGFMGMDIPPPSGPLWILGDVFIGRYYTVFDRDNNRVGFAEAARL

[3] = target: T1, memapsin 1 (Homo sapiens, UniProt Q9Y5Z0); assay: Inhibition of memapsin 1 catalytic activity (Ki); assay type: biochemical; conditions: memapsin 1, pH 4.0, 37° C.; read-out: M1K
T1 sequence (Q9Y5Z0 63-518): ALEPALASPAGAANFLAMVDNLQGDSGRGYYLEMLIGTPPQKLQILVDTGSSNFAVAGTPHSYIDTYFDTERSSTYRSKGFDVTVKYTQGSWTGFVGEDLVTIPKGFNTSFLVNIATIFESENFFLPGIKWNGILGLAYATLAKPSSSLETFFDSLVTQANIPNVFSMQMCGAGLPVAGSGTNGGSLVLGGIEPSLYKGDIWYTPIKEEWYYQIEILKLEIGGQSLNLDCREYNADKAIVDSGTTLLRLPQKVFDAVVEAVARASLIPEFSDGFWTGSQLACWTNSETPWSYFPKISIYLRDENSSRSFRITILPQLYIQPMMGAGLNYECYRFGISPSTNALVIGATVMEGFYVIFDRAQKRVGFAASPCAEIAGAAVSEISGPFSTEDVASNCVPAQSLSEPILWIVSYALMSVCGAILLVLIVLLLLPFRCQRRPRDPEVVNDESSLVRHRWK
Protocol: A substrate peptide NH3-ELDLAVEFWHDR-CO2 (SEQ ID NO.:1) (used for inhibition assay of memapsin 2, memapsin 1, and cathepsin D) was dissolved at 2 mg/ml in DMSO and diluted 1:100 in 0.1 M sodium acetate, pH 4.0 just prior to assay. Inhibitor dissolved in DMSO was diluted into 0.1 M sodium acetate, pH 4.0 (1:100 dilution). A […] aliquot of the inhibitor solution in pH 4 buffer was combined with […] of 0.1 M sodium acetate containing 100-200 nM of memapsin 1, memapsin 2, or cathepsin D. Following a pre-incubation at 37° C., the proteolytic assay was initated by addition of […] of the substrate diluted into pH 4 buffer, and incubation continued at 37° C. Aliquots were removed at time intervals, and combined with an equal volume of MALDI-TOF matrix (α-hydroxycinnamic acid in acetone, 20 mg/ml) and immediately spotted in duplicate onto a stainless-steel MALDI sample plate. MALDI-TOF mass spectrometry was performed on a PE Biosystems Voyager DE instrument at the Molecular Biology Resource Center on campus. The instrument was operated at 25,000 accelerating volts in positive mode with a 150 ns delay. Ions with a mass-to-charge ratio (m/z) were detected in the range of 650-2000 atomic mass units. Data were analyzed by the Voyager Data Explorer module to obtain ion intensity data for mass species of substrates and corresponding products in a given mixture. Relative product formation was calculated as the ratio of signal intensity of the product to the sum of signal intensities of both product and the corresponding substrate. Relative product formed per unit time was obtained from non-linear regression analysis of the data representing the initial 15% formation of product using the model: 1−e^−kT, where k was the relative hydrolytic rate constant and T was time in seconds. Alternatively, relative hydrolytic rates were determined using a fluorogenic cleavage assay (Ermolieff, J. et al., Biochemistry, 39: 12450-12456 (2000)). Initial rates from either method were expressed relative to uninhibited controls and the inhibition constant Ki was determined by a non-linear fit to a tight-binding model of competitive inhibition (Bieth, J., Bayer-Symposium V: Proteinase Inhibitors, pp 463-469, Spinger-Varlag, Berlin (1994)). Results are shown in Table 1 above (M2K, CDK, and M1K columns represent, respectively, the K1 values obtained for memapsin 2, cathepsin D and memapsin 1).

[4] = tested on: Aβ production in Chinese hamster ovary cells that over-express human APP695 with the London and Swedish mutations; assay: Cellular Aβ IC50 determination (Aβ40 sandwich ELISA); conditions: Cricetulus griseus, CHO, 24 h, read-out: Cell, Aβ40, CHO cells over-expressing human APP695 (London and Swedish mutations), 24 h

Sequence of memapsin 2 (P56817 46-501): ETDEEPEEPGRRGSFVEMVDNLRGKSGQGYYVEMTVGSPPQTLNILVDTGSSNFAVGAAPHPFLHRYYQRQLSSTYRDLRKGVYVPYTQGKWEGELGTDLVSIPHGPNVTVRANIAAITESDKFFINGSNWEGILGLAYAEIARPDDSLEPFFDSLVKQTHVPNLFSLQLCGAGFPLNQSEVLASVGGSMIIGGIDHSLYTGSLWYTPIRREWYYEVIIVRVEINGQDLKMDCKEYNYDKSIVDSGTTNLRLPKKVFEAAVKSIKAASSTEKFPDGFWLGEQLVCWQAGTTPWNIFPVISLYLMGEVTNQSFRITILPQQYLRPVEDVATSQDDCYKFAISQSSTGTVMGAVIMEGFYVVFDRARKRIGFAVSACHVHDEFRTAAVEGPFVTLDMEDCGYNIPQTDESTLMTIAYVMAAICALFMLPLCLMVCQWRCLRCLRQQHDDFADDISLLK

| SMILES | Ki [1] [nM] | Ki [2] [nM] | Ki [3] [nM] | IC50 [4] [nM] |
| --- | --- | --- | --- | --- |
| CCN(c1cc(C(=O)NC(C)c2ccccc2)cc(C(=O)NC(Cc2ccccc2)C(O)CNCc2cccc(OC)c2)c1)S(C)(=O)=O (stereo not drawn) [5-(N-ethylmethylsulfonamido)-N1-(3-hydroxy-4-(3-methoxybenzylamino)-1-phenylbutan-2-yl)-N3-(1-phenylethyl)isophthalamide] | 301 to 500 | < 300 | < 300 | < 1000 |
| COc1cccc(CNCC(O)C(Cc2ccccc2)NC(=O)c2cc(C(=O)NC(C)c3nc(C)oc3C)cc(N(C)S(C)(=O)=O)c2)c1 (stereo not drawn) [N1-(1-(2,5-dimethyloxazol-4-yl)ethyl)-N3-(3-hydroxy-4-(3-methoxybenzylamino)-1-phenylbutan-2-yl)-5-(N-methylmethylsulfonamido)isophthalamide] | > 501 | > 501 | > 501 | 1000 to 5000 |
| COc1cccc(CNCC(O)C(Cc2ccccc2)NC(=O)c2cc(C(=O)NC(C)c3ccc(F)cc3)cc(N(C)S(C)(=O)=O)c2)c1 (stereo not drawn) [N1-(1-(4-fluorophenyl)ethyl)-N3-(3-hydroxy-4-(3-methoxybenzylamino)-1-phenylbutan-2-yl)-5-(N-methylmethylsulfonamido)isophthalamide] | < 300 | < 300 | < 300 | < 1000 |
| CC(NCC(O)C(Cc1ccccc1)NC(=O)c1cc(C(=O)NC(C)c2ccccc2)cc(N(C)S(C)(=O)=O)c1)c1ccccc1 (stereo not drawn) [N1-(3-hydroxy-1-phenyl-4-(1-phenylethylamino)butan-2-yl)-5-(N-methylmethylsulfonamido)-N3-(1-phenylethyl)isophthalamide] | < 300 | < 300 | 301 to 500 | < 1000 |
| Cc1csc(CN(C)C(=O)c2cccc(C(=O)NC(Cc3ccccc3)C(O)CNC(C)c3ccccc3)c2)n1 (stereo not drawn) [N1-(3-hydroxy-1-phenyl-4-(1-phenylethylamino)butan-2-yl)-N3-methyl-N3-((4-methylthiazol-2-yl)methyl)isophthalamide] | > 501 | > 501 | < 300 | 1000 to 5000 |
| CCC(NCC(O)C(Cc1ccccc1)NC(=O)c1cc(C(=O)NC(C)c2ccccc2)cc(N(C)S(C)(=O)=O)c1)c1ccccc1 (stereo not drawn) [N1-(3-hydroxy-1-phenyl-4-(1-phenylpropylamino)butan-2-yl)-5-(N-methylmethylsulfonamido)-N3-(1-phenylethyl)isophthalamide] | < 300 | < 300 | < 300 | < 1000 |
| CCC(NCC(O)C(Cc1ccccc1)NC(=O)c1cccc(C(=O)N(C)Cc2nc(C)cs2)c1)c1ccccc1 (stereo not drawn) [N1-(3-hydroxy-1-phenyl-4-(1-phenylpropylamino)butan-2-yl)-N3-methyl-N3-((4-methylthiazol-2-yl)methyl)isophthalamide] | > 501 | < 300 | > 501 | 1000 to 5000 |
| Cc1csc(CN(C)C(=O)c2cccc(C(=O)NC(Cc3ccccc3)C(O)CNCc3cccc(C(F)(F)F)c3)c2)n1 (stereo not drawn) [N1-(3-hydroxy-1-phenyl-4-(3-(trifluoromethyl)benzylamino)butan-2-yl)-N3-methyl-N3-((4-methylthiazol-2-yl)methyl)isophthalamide] | < 300 | < 300 | > 501 | < 1000 |
| CC(NC(=O)c1cc(C(=O)NC(Cc2ccccc2)C(O)CNCc2ccccn2)cc(N(C)S(C)(=O)=O)c1)c1ccccc1 (stereo not drawn) [N1-(3-hydroxy-1-phenyl-4-(pyridin-2-ylmethylamino)butan-2-yl)-5-(N-methylmethylsulfonamido)-N3-(1-phenylethyl)isophthalamide] | < 300 | > 501 | > 501 | < 1000 |
| CC(NC(=O)c1cc(C(=O)NC(Cc2ccccc2)C(O)CNCc2cccnc2)cc(N(C)S(C)(=O)=O)c1)c1ccccc1 (stereo not drawn) [N1-(3-hydroxy-1-phenyl-4-(pyridin-3-ylmethylamino)butan-2-yl)-5-(N-methylmethylsulfonamido)-N3-(1-phenylethyl)isophthalamide] | < 300 | > 501 | 301 to 500 | < 1000 |
| CC(NC(=O)c1cc(C(=O)NC(Cc2ccccc2)C(O)CNCc2ccncc2)cc(N(C)S(C)(=O)=O)c1)c1ccccc1 (stereo not drawn) [N1-(3-hydroxy-1-phenyl-4-(pyridin-4-ylmethylamino)butan-2-yl)-5-(N-methylmethylsulfonamido)-N3-(1-phenylethyl)isophthalamide] | < 300 | > 501 | 301 to 500 | < 1000 |
| COc1cccc(C(C)NCC(O)C(Cc2ccccc2)NC(=O)c2cc(C(=O)NC(C)c3ccccc3)cc(N(C)S(C)(=O)=O)c2)c1 (stereo not drawn) [N1-(3-hydroxy-4-(1-(3-methoxyphenyl)ethylamino)-1-phenylbutan-2-yl)-5-(N-methylmethylsulfonamido)-N3-(1-phenylethyl)isophthalamide] | < 300 | < 300 | < 300 | < 1000 |

More lines, now with the values ahead:

| Ki [1] [nM] | Ki [2] [nM] | Ki [3] [nM] | IC50 [4] [nM] | SMILES |
| --- | --- | --- | --- | --- |
| – | < 300 | < 300 | < 1000 | COc1cccc(CNCC(O)C(Cc2ccccc2)NC(=O)c2cc(C(=O)NC(C)c3ccccc3)cc(N(C)S(C)(=O)=O)c2)c1 (stereo not drawn) [N1-(3-hydroxy-4-(3-methoxybenzylamino)-1-phenylbutan-2-yl)-5-(N-methylmethylsulfonamido)-N3-(1-phenylethyl)isophthalamide] |
| < 300 | < 300 | 301 to 500 | – | COc1cncc(CNCC(O)C(Cc2ccccc2)NC(=O)c2cc(C(=O)NC(C)c3ccccc3)cc(N(C)S(C)(=O)=O)c2)c1 (stereo not drawn) [N1-(3-hydroxy-4-((5-methoxypyridin-3-yl)methylamino)-1-phenylbutan-2-yl)-5-(N-methylmethylsulfonamido)-N3-(1-phenylethyl)isophthalamide] |
| > 501 | > 501 | > 501 | – | Cc1csc(CN(C)CC(O)C(Cc2ccccc2)NC(=O)c2cc(C(=O)NC(C)c3ccccc3)cc(N(C)S(C)(=O)=O)c2)n1 (stereo not drawn) [N1-(3-hydroxy-4-(methyl((4-methylthiazol-2-yl)methyl)amino)-1-phenylbutan-2-yl)-5-(N-methylmethylsulfonamido)-N3-(1-phenylethyl)isophthalamide] |
| 301 to 500 | > 501 | < 300 | – | CC(NC(=O)c1cc(C(=O)NC(Cc2ccccc2)C(O)CNCc2cccc(COCc3ccccc3)c2)cc(N(C)S(C)(=O)=O)c1)c1ccccc1 (stereo not drawn) [N1-(4-(3-(benzyloxymethyl)benzylamino)-3-hydroxy-1-phenylbutan-2-yl)-5-(N-methylmethylsulfonamido)-N3-(1-phenylethyl)isophthalamide] |
| – | > 501 | > 501 | 1000 to 5000 | Cc1nc(CNCC(O)C(Cc2ccccc2)NC(=O)c2cc(C(=O)NC(C)c3ccccc3)cc(N(C)S(C)(=O)=O)c2)c(C)o1 (stereo not drawn) [N1-(4-((2,5-dimethyloxazol-4-yl)methylamino)-3-hydroxy-1-phenylbutan-2-yl)-5-(N-methylmethylsulfonamido)-N3-(1-phenylethyl)isophthalamide] |
| < 300 | < 300 | > 501 | – | COc1cccc(CNCC(O)C(Cc2ccccc2)NC(=O)c2cccc(C(=O)N(Cc3nc(C)cs3)C3CC3)c2)c1 (stereo not drawn) [N1-cyclopropyl-N3-(3-hydroxy-4-(3-methoxybenzylamino)-1-phenylbutan-2-yl)-N1-((4-methylthiazol-2-yl)methyl)isophthalamide] |
